Laboratory results taken from patent publication US9133158B2, “Bicyclic dihydroisoquinoline-1-one derivatives” (Hoffmann-La Roche Inc., priority 2011, dated 2015).

Biological target: T1, human CYP11B2 (Homo sapiens, UniProt P19099)
T1 construct: expressed in transfected cells
T1 sequence (P19099 25-503): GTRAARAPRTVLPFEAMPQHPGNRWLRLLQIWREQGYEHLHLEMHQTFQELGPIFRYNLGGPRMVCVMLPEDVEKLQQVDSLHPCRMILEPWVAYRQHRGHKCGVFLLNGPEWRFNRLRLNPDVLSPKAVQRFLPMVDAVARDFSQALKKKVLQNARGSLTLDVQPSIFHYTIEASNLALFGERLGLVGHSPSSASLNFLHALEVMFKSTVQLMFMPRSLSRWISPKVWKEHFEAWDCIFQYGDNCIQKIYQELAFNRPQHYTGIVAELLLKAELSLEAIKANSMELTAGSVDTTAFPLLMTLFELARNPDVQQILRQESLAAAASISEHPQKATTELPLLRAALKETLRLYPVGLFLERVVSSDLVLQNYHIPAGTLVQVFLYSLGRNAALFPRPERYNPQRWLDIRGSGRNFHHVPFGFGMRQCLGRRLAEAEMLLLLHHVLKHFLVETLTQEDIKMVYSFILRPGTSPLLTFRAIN
Assay: G-402 cellular enzyme assay, human CYP11B2 (aldosterone release, HTRF)
Assay type: cell-based
Conditions: G-402 cells, 1 μM Deoxycorticosterone
Description: Herein we identified the use of the G-402 cell line as a host cell to ectopically express (transiently or stably) enzymes of the CYP11 family. Specifically we developed stable G-402 cells expressing ectopically human CYP11B1, human CYP11B2, human CYP11A1, cynmolgus CYP11B1 or cynomolgus CYP11B2 enzyme activity. Importantly the identified cell line G-402 expresses co-factors (adrenodoxin and adrenodoxin reductase) important for the activity of the CYP11 family and no relevant enzyme activity of the CYP11 family (in comparison to H295R cells) was detected in these cells. Therefore the G-402 cell line is uniquely suited as a host cell for the ectopic expression of enzymes from the CYP11 family.
G-402 cells can be obtained from ATCC(CRL-1440) and were originally derived from a renal leiomyoblastoma.
The expression plasmids contain the ORF for either human/cyno CYP11B1 or CYP11B2 under the control of a suitable promoter (CMV-promoter) and a suitable resistance marker (neomycin). Using standard techniques the expression plasmid is transfected into G-402 cells and these cells are then selected for expressing the given resistance markers. Individual cell-clones are then selected and assessed for displaying the desired enzymatic activity using 11-Deoxycorticosterone (Cyp11B2) or 11-Deoxycortisol (Cyp11B1) as a substrate.
G-402 cells expressing CYP11 constructs were established as described above and maintained in McCoy's 5a Medium Modified, ATCC Catalog No. 30-2007 containing 10% FCS and 400 μg/ml G418 (Geneticin) at 37° C. under an atmosphere of 5% CO2/95% air.
Cellular enzyme assays were performed in DMEM/F12 medium containing 2.5% charcoal treated FCS and appropriate concentration of substrate (0.3-10 uM 11-Deoxycorticosterone, 11-Deoxycortisol or Corticosterone). For assaying enzymatic activity, cells were plated onto 96 well plates and incubated for 16 h. An aliquot of the supernatant is then transferred and analyzed for the concentration of the expected product (Aldosterone for CYP11B2; Cortisol for CYP11B1). The concentrations of these steroids can be determined using HTRF assays from CisBio analyzing either Aldosterone or Cortisol.
Inhibition of the release of produced steroids can be used as a measure of the respective enzyme inhibition by test compounds added during the cellular enzyme assay. The dose dependent inhibition of enzymatic activity by a compound is calculated by means of plotting added inhibitor concentrations (x-axes) vs. measured steroid/product level (y-axes). The inhibition is then calculated by fitting the following 4-parameter sigmoidal function (Morgan-Mercer-Flodin (MMF) model) to the raw data points using the least squares method:
[formula] wherein, A is the maximum y value, B is the EC50 factor determined using XLFit, C is the minimum y value and D is the slope value.
EC50 values for compounds claimed herein were tested with the G402-based assay system described. Cyp11B2 enzyme activity was tested in presence of 1 μM Deoxycorticosterone and variable amounts of inhibitors; Cyp11B1 enzyme activity was tested in presence of 1 μM Deoxycortisol and variable amounts of inhibitors.

Row | EC50 | SMILES
1 | 8.03 µM | CC(=O)NC1CCCc2c1cncc2N1CCc2cc(Cl)ccc2C1=O (single isomer, unassigned) [Example 320, N-((R or S)-6-Chloro-1-oxo-3,4,5′,6′,7′,8′-hexahydro-1H-[2,4′]biisoquinolinyl-8′-yl)-acetamide]
2 | 2.81 µM | CS(=O)(=O)NC1CCCc2c1cncc2N1CCc2cc(Cl)ccc2C1=O (single isomer, unassigned) [Example 324, N-((S or R)-6-Chloro-1-oxo-3,4,5′,6′,7′,8′-hexahydro-1H-[2,4′]biisoquinolinyl-8′-yl)-methanesulfonamide]
3 | > 30 µM | CS(=O)(=O)NC1CCc2c1cncc2N1CCc2cc(Cl)ccc2C1=O (single isomer, unassigned) [Example 330, N-[(S or R)-4-(6-Chloro-1-oxo-3,4-dihydro-1H-isoquinolin-2-yl)-6,7-dihydro-5H-[2]pyrindin-7-yl]-methanesulfonamide]
4 | 14.8 µM | CC(=O)NC1CCc2c1cncc2N1CCc2cc(Cl)ccc2C1=O (single isomer, unassigned) [Example 332, N-[(R or S)-4-(6-Chloro-1-oxo-3,4-dihydro-1H-isoquinolin-2-yl)-6,7-dihydro-5H-[2]pyrindin-7-yl]-acetamide]
5 | 13.8 µM | CS(=O)(=O)NC1CCc2c1cncc2N1Cc2cc(Cl)ccc2C1=O (single isomer, unassigned) [Example 335, N-[(S or R)-4-(5-Chloro-1-oxo-1,3-dihydro-isoindol-2-yl)-6,7-dihydro-5H-[2]pyrindin-7-yl]-methanesulfonamide]
6 | 24.3 µM | CCS(=O)(=O)NC1CCc2c1cncc2N1Cc2cc(Cl)ccc2C1=O (single isomer, unassigned) [Example 337, Ethanesulfonic acid [(S or R)-4-(5-chloro-1-oxo-1,3-dihydro-isoindol-2-yl)-6,7-dihydro-5H-[2]pyrindin-7-yl]-amide]
7 | > 30 µM | CCC(=O)NC1CCc2c1cncc2N1Cc2cc(Cl)ccc2C1=O (single isomer, unassigned) [Example 338, N-[(S or R)-4-(5-Chloro-1-oxo-1,3-dihydro-isoindol-2-yl)-6,7-dihydro-5H-[2]pyrindin-7-yl]-propionamide]
8 | 3.66 µM | CCC(=O)N[C@H]1CCCc2c1cncc2N1C(=O)c2ccc(Cl)cc2[C@@H]1CC (single isomer, unassigned) [Example 351, N-[(S or R)-4-((S or R)-5-Chloro-3-ethyl-1-oxo-1,3-dihydro-isoindol-2-yl)-5,6,7,8-tetrahydro-isoquinolin-8-yl]-propionamide]
9 | 0.195 µM | CC[C@H]1c2cc(Cl)ccc2C(=O)N1c1cncc2c1CC[C@@H]2NS(C)(=O)=O (single isomer, unassigned) [Example 370, N-[(S or R)-4-((S or R)-5-Chloro-3-ethyl-1-oxo-1,3-dihydro-isoindol-2-yl)-6,7-dihydro-5H-[2]pyrindin-7-yl]-methanesulfonamide]
10 | 4.26 µM | CC(=O)N[C@H]1CCCc2c1cncc2N1C(=O)c2ccc(Cl)cc2[C@@H]1C1CC1 (single isomer, unassigned) [Example 371, N-[(S or R)-4-((S or R)-5-Chloro-3-cyclopropyl-1-oxo-1,3-dihydro-isoindol-2-yl)-5,6,7,8-tetrahydro-isoquinolin-8-yl]-acetamide]
11 | > 30 µM | CC(=O)N[C@H]1CCCc2c1cncc2N1C(=O)c2ccc(Cl)cc2[C@H]1C1CC1 (single isomer, unassigned) [Example 373, N-[(S or R)-4-((R or S)-5-Chloro-3-cyclopropyl-1-oxo-1,3-dihydro-isoindol-2-yl)-5,6,7,8-tetrahydro-isoquinolin-8-yl]-acetamide]
12 | 0.354 µM | CC(=O)N[C@@H]1CCCc2c1cncc2N1C(=O)c2ccc(Cl)cc2[C@@H]1C1CC1 (single isomer, unassigned) [Example 374, N-[(R or S)-4-((S or R)-5-Chloro-3-cyclopropyl-1-oxo-1,3-dihydro-isoindol-2-yl)-5,6,7,8-tetrahydro-isoquinolin-8-yl]-acetamide]
13 | 5.62 µM | CCC(=O)N[C@@H]1CCc2c1cncc2N1C(=O)c2ccc(Cl)cc2[C@@H]1C (single isomer, unassigned) [Example 375, N-[(R or S)-4-((S or R)-5-Chloro-3-methyl-1-oxo-1,3-dihydro-isoindol-2-yl)-6,7-dihydro-5H-[2]pyrindin-7-yl]-propionamide]
14 | > 30 µM | CC(=O)NC1CCc2c1cncc2N1Cc2cc(Cl)ccc2C1=O (single isomer, unassigned; (-)) [Example 318, (−)-N—[(S or R)-4-(5-Chloro-1-oxo-1,3-dihydro-isoindol-2-yl)-6,7-dihydro-5H-[2]pyrindin-7-yl]-acetamide]
15 | 0.401 µM | CCS(=O)(=O)NCc1cncc(N2CCc3cc(Cl)ccc3C2=O)c1 [Example 25, Ethanesulfonic acid [5-(6-chloro-1-oxo-3,4-dihydro-1H-isoquinolin-2-yl)-pyridin-3-ylmethyl]-amide]
16 | 0.372 µM | CNC(=O)c1cncc(N2CCc3cc(Cl)ccc3C2=O)c1 [Example 43, 5-(6-Chloro-1-oxo-3,4-dihydro-1H-isoquinolin-2-yl)-N-methyl-nicotinamide]
17 | 0.295 µM | O=C(Nc1ccc(F)cc1)c1cncc(N2CCc3cc(Cl)ccc3C2=O)c1 [Example 45, 5-(6-Chloro-1-oxo-3,4-dihydro-1H-isoquinolin-2-yl)-N-(4-fluoro-phenyl)-nicotinamide]
18 | 1.5 µM | O=C1c2ccc(Cl)cc2CCN1c1cncc(N2C(=O)CC[C@H]2CO)c1 [Example 50, 6-Chloro-2-[5-((S)-2-hydroxymethyl-5-oxo-pyrrolidin-1-yl)-pyridin-3-yl]-3,4-dihydro-2H-isoquinolin-1-one]
19 | 2.68 µM | O=C1c2ccc(Cl)cc2CCN1c1cncnc1 [Example 51, 6-Chloro-2-pyrimidin-5-yl-3,4-dihydro-2H-isoquinolin-1-one]
20 | 0.212 µM | O=c1c2ccc(Cl)cc2ccn1-c1cncc(F)c1 [Example 54, 6-Chloro-2-(5-fluoro-pyridin-3-yl)-2H-isoquinolin-1-one]
21 | 2.06 µM | Cn1cnnc1-c1cncc(N2CCc3cc(Cl)ccc3C2=O)c1 [Example 58, 6-Chloro-2-[5-(4-methyl-4H-[1,2,4]triazol-3-yl)-pyridin-3-yl]-3,4-dihydro-2H-isoquinolin-1-one]
22 | 2.83 µM | COC(OC)c1ccncc1N1CCc2cc(Cl)ccc2C1=O [Example 61, 6-Chloro-2-(4-dimethoxymethyl-pyridin-3-yl)-3,4-dihydro-2H-isoquinolin-1-one]
23 | 0.935 µM | CC(O)c1c(F)cncc1N1CCc2cc(Cl)ccc2C1=O (stereo not drawn) [Example 62, 6-Chloro-2-[5-fluoro-4-(l-hydroxy-ethyl)-pyridin-3-yl]-3,4-dihydro-2H-isoquinolin-1-one]
24 | 0.449 µM | N#Cc1ccncc1N1CCc2cc(Cl)ccc2C1=O [Example 74, 3-(6-Chloro-1-oxo-3,4-dihydro-1H-isoquinolin-2-yl)-isonicotinonitrile]
25 | 0.761 µM | CC1Cc2cc(Cl)ccc2C(=O)N1c1cccnc1 (stereo not drawn) [Example 88, 6-Chloro-3-methyl-2-pyridin-3-yl-3,4-dihydro-2H-isoquinolin-1-one]
26 | 1.23 µM | CC1Cc2cc(Cl)ccc2C(=O)N1c1cncnc1 (stereo not drawn) [Example 90, 6-Chloro-3-methyl-2-pyrimidin-5-yl-3,4-dihydro-2H-isoquinolin-1-one]
27 | 0.395 µM | C[C@@H]1Cc2cc(Cl)ccc2C(=O)N1c1cccnc1 [Example 91, (R)-6-Chloro-3-methyl-2-pyridin-3-yl-3,4-dihydro-2H-isoquinolin-1-one]
